The values below come from patent US20220008452A1, “COMPOSITIONS AND METHODS FOR TREATING OR PREVENTING NASH, NAFLD, DIABETES, ATHEROSCLEROSIS, AND/OR OBESITY” (YALE UNIVERSITY, priority 2018, published 2022).

One data set deals with miR-335-5p. In words: Relative expression of miR-335-5p by RT-PCR in endothelial cells. It is filed as cell-based, human. As to the method: (§1) Human umbilical vein endothelial cells (HUVECs) were cultured in EBM-2 (Lonza) and THP-1 monocytes (ATCC) were grown in RPM. Human coronary microvascular endothelial cells (HCMECs) (Lonza) were cultured in EBM (Lonza). For experimental treatments, HUVECs and HMVECs (passages 3 to 8) were grown to 70-90% confluence. Simvastatin (Sigma) was activated to its active form as previously described. Atorvastatin (Sigma) was solubilized in DMSO and used at 10 μM concentration. Transient transfection of plasmids was performed with Fugene HD (Promega) according to the manufacturer's instructions. For small interfering RNA (Invitrogen) and miR-335-5p mimic (Dharmacon) transfections, each oligonucleotide formulation and respective controls (control siRNA: 12935112 (Invitrogen), miRNA mimic control: 0010000105 (Dharmacon), 50 nM) were complexed with Lipofectamine RNAiMAX (Invitrogen) according to the manufacturer's instructions.
(§2) Total RNA was extracted with the miRNeasy Mini kit (Qiagen). […] RT-PCR was performed with TaqMan probes for genes and miRNAs (ThermoFisher), or SYBR green assays for genes (Bio-Rad). All miRNA data were normalized to the internal control small RNAs U6 for human samples. For the mRNA samples, ribosomal 18S was used as an internal control. Individual RT-PCRs were performed on a […] (Bio-Rad) according to the manufacturer's instructions.

The test system of another data set is CHFR. Nature of the data set: Relative mRNA and protein expression of CHFR (quantitative PCR, western blot). (A western blot detects proteins with antibodies after separation by electrophoresis.)
In the next data set the test system is MEST. Nature of the data set: Relative mRNA expression of MEST by RT-PCR in endothelial cells. Format: cell-based, human. As for the experimental part:
as §1, §2

Another data set relates to miR335. In words: miR335 inhibitor given to mice on 60% high fat diet. It is filed as in vivo. As to conditions: 60% HFD, 5 mg/kg IP, vs control inhibitor. As for the experimental part: FIG. 14 is a schematic outlining time course of an experiment comparing animals administered miR335 inhibitors to control, on a high fat diet. The mice were injected 5 mg/kg of miR335 inhibitor or its control twice a week for 4 weeks. Nonproprietary in vivo grade miRNA inhibitor purchased from Qiagen/Exiqon. Sequence: […] (SEQ ID NO:3; 100% complementary to […]).
The mice are subject to 6 weeks of 60% HFD. 5 mg/kg of miR335 inhibitor and its control was given to mice by IP injection. 2 weeks after, HFD was started.
The mir335−/− mice and Apoe−/− mice have been previously described. All animals were maintained on a C57BL/6 background. For mice fed a high-fat diet, mice were administered a 60% fat diet (TD-06414, Envigo) or 40% fat diet with 1.25% added cholesterol (DI2108C, Research Diet) for designated times before tissue and serum were collected.
Frozen 10-μm cryosections from the liver were washed with distilled water for 10 min. After the washing, sections were put into Eosin solution for 2 min. After rinsing with distilled water, sections were put into Hematoxylin solution for 5 min. After washing with distilled water for 15 min, the slides were mounted with DPX mountant (Sigma). Sections were imaged using bright-field microscopy.
Plasma was assessed for alanine aminotransferase (ALT) (Pointe Scientific) following the manufacturer's instructions. Briefly, 20 μl of each plasma sample was added in the 200 μl of the reagent and incubated at 37° C. After 1 min incubation, samples were put on the plate and the plate was read at 340 nm with a microplate reader (BioTek Synergy 2). The ALT values were calculated according to the manufacturer's instructions.

`CC(C)c1c(C(=O)Nc2ccccc2)c(-c2ccccc2)c(-c2ccc(F)cc2)n1CC[C@@H](O)C[C@@H](O)CC(=O)O` [atorvastatin]: the miR-335 expression entry with miR-335-5p (HCMECs) and with miR-335-5p (HUVECs) was “significant decrease” throughout. Also, the “CHFR mRNA and protein expression” value with CHFR (HCMECs) and with CHFR (HUVECs) was “significantly upregulated” each time. Besides, the MEST expression entry with MEST (HCMECs) and with MEST (HUVECs) was “significantly downregulated” throughout.
On to “miR335 inhibitor: Nonproprietary in vivo grade miRNA inhibitor purchased from Qiagen/Exiqon; sequence ACATTTTTCGTTATTGCTCTTGA (SEQ ID NO:3), complementary to miR-335-5p (in vivo grade miRNA inhibitor from Exiqon, chemistry not given here, further chemistry not given here)”, for which, in the data set with miR335, the “elevation in serum ALT associated with high fat diet” value is on record as “attenuated”, the “fat accumulation in the liver” value is listed as “attenuated”, the liver histology entry is “preserved” and the liver weight entry was “decreased”. Also, the “weight gain associated with a high fat diet” value in the data set on miR335 is given as “suppressed”.
